Experimental data reported in patent US20240254109A1, “SALT CONTAINING PIPERAZINE POLYCYCLIC DERIVATIVE, CRYSTAL FORM THEREOF, PREPARATION METHOD THEREFOR, AND USE THEREOF” (Shanghai Hansoh Biomedical Co., Ltd., priority 2021, published 2024).
Blank lines part the entries; values can stand above or below the compound they belong to.

Assays:
[1] = Pharmacokinetic assay in Balb/c mice (plasma and brain tissue); assay type: in vivo; conditions: p.o. 5 mg/kg
Method: (III). Pharmacokinetic Assay in Balb/c Mice
Balb/c mice were used as test animals. The pharmacokinetic behavior in mouse body (plasma and brain tissue) of the compounds of Examples of the present invention was studied at an oral administration dose of 5 mg/kg.
Male Balb/c mice (12 mice per group), purchased from Shanghai Jiesijie Laboratory Animal Co., LTD, with Certificate No.: SCXK (Shanghai) 2013-0006 N0.311620400001794.
The test compound was dissolved in 0.5% CMC-Na (1% Tween80) by sonication to formulate a clear solution or homogeneous suspension.
After an overnight fast, male Balb/c mice (12 mice per group) were administered p.o. with the test compound at an administration dose of 5 mg/kg and an administration volume of 10 mL/kg.
0.2 mL of blood was taken from the heart of the mouse before administration and at 1, 2, 4, 8 and 24 hours after administration, and the mice were sacrificed with CO2. The samples were stored in EDTA-K2 tubes, and centrifuged for 6 minutes at 4° C., 6000 rpm to separate the plasma. The plasma samples were stored at −80° C. Whole brain tissue was taken out, weighed, placed in a 2 mL centrifuge tube, and stored at −80° C.
1) 160 μL of acetonitrile was added to 40 μL of the plasma sample for precipitation, and then the mixture was centrifuged for 5 to 20 minutes at 3500×g.
2) 90 μL of acetonitrile containing internal standard (100 ng/mL) was added to 30 μL of the plasma and brain homogenate sample for precipitation, and then the mixture was centrifuged for 8 minutes at 13000 rpm.
3) 70 μL of water was added to 70 μL of the treated supernatant and mixed by vortex for 10 minutes. 20 μL of the supernatant was taken to analyze the concentration of the test compound by LC/MS/MS. LC/MS/MS analytical instrument: AB Sciex API 4000 Qtrap.
• Liquid chromatography condition: Shimadzu LC-20AD pump • Chromatographic column: Agilent ZORBAX XDB-C18 (50×2.1 mm, […]); Mobile phase: Eluent A was 0.1% formic acid in water, and Eluent B was acetonitrile • Flow rate: 0.4 mL/min • Elution time: 0-4.0 minutes, the eluent is as follows:
The main parameters of pharmacokinetics were calculated by WinNonlin 6.1.

[2] = Solid stability experiment of crystal form of salt; assay type: physicochemical; conditions: for Maximum single impurity increase % / Total impurity increase %: listed as Crystal form B of p-toluenesulfonate
Method: 4. Solid Stability Experiment
The physicochemical stability of crystal form of salt of compound N-(trans-3-(2-(4-(2,3-dichlorophenyl)piperazin-1-yl)ethyl)cyclobutyl)oxazole-2-carboxamide under the conditions of light 50001×, high temperature 60° C., high humidity 92.5% RH and high temperature and high humidity 50° C. 75% RH was investigated, which provided a basis for crystal form screening and compound crystal form storage.
About 1 mg of different crystal forms of salt were taken and placed under the conditions of light 50001×, high temperature 60° C., high humidity 92.5% RH, high temperature and high humidity 50° C. 75% RH for 5 days and 10 days. The salt content was determined by HPLC and external standard method, and the change of relevant substances was calculated by chromatographic peak area normalization method.

[3] = Stability study of salt (5 days and 10 days, HPLC related substances); assay type: physicochemical
Method: 2.1.3 Stability Study of Salt
Hydrochloride and p-toluenesulfonate of N-(trans-3-(2-(4-(2,3-dichlorophenyl)piperazin-1-yl)ethyl)cyclobutyl)oxazole-2-carboxamide were weighed about 1 mg, respectively, and then placed under light (5000 lux), high temperature (60° C.), high humidity (92.50 RH), high temperature and high humidity (50° C. and 75% RH) for 5 days and 10 days, then a diluent DMSO was added to prepare a solution with salt concentration of about 1 mg/mL.
The chromatographic peak area normalization method was used to calculate the changes of related substances.

[4] = GWGS-5 d (high temperature and high humidity)
[5] = GWGS-10 d (high temperature and high humidity)

- Peak time tmax ([1]; Brain): 1 h
- Peak time tmax ([1]; Plasma): 0.5 h
Compound: O=C(N[C@H]1C[C@H](CCN2CCN(c3cccc(Cl)c3Cl)CC2)C1)C1(O)CC1 [Example 6A, N-(Trans-3-(2-(4-(2,3-dichlorophenyl)piperazin-1-yl)ethyl)cyclobutyl)-1-hydroxycyclopropane-1-carboxamide]

- Peak time tmax ([1]; Brain): 1 h
- Peak time tmax ([1]; Plasma): 0.5 h
Compound: O=C(N[C@H]1C[C@@H](CCN2CCN(c3cccc(Cl)c3Cl)CC2)C1)C1(O)CC1 [Example 6B, N-(Cis-3-(2-(4-(2,3-dichlorophenyl)piperazin-1-yl)ethyl)cyclobutyl)-1-hydroxycyclopropane-1-carboxamide]

- Peak time tmax ([1]; Brain): 1 h
- Peak time tmax ([1]; Plasma): 1 h
Compound: O=C(N[C@H]1C[C@H](CCN2CCN(c3cccc(Cl)c3Cl)CC2)C1)c1nccs1 [Example 7A, N-(Trans-3-(2-(4-(2,3-dichlorophenyl)piperazin-1-yl)ethyl)cyclobutyl)thiazole-2-carboxamide]

- Peak time tmax ([1]; Brain): 1 h
- Peak time tmax ([1]; Plasma): 0.5 h
Compound: O=C(N[C@H]1C[C@@H](CCN2CCN(c3cccc(Cl)c3Cl)CC2)C1)c1ncco1 [Example 12B, N-(Cis-3-(2-(4-(2,3-dichlorophenyl)piperazin-1-yl)ethyl)cyclobutyl)oxazole-2-carboxamide]

- Peak time tmax ([1]; Brain): 1 h
- Peak time tmax ([1]; Plasma): 0.5 h
Compound: O=C(N[C@H]1C[C@H](CCN2CCN(c3cccc(Cl)c3Cl)CC2)C1)c1cccc2ncccc12 [Example 19A, N-(trans-3-(2-(4-(2,3-dichlorophenyl)piperazin-1-yl)ethyl)cyclobutyl)quinoline-5-carboxamide]

The next lines start with the compound.

Compound: O=C(NC1CC(CCN2CCN(c3cccc(Cl)c3Cl)CC2)C1)C1(O)CC1 (stereo not drawn) [Example 6, N-(3-(2-(4-(2,3-Dichlorophenyl)piperazin-1-yl)ethyl)cyclobutyl)-1-hydroxycyclopropane-1-carboxamide]
- Peak time tmax ([1]; Brain): 1 h
- Peak time tmax ([1]; Plasma): 0.5 h

Compound: O=C(NC1CC(CCN2CCN(c3cccc(Cl)c3Cl)CC2)C1)c1nccs1 (stereo not drawn) [Example 7, N-(3-(2-(4-(2,3-Dichlorophenyl)piperazin-1-yl)ethyl)cyclobutyl)thiazole-2-carboxamide]
- Peak time tmax ([1]; Brain): 1 h
- Peak time tmax ([1]; Plasma): 0.5 h

Compound: O=C(NC1CC(CCN2CCN(c3cccc(Cl)c3Cl)CC2)C1)c1ncco1 (stereo not drawn) [Example 12, N-(3-(2-(4-(2,3-Dichlorophenyl)piperazin-1-yl)ethyl)cyclobutyl)oxazole-2-carboxamide]
- Peak time tmax ([1]; Brain): 1 h
- Peak time tmax ([1]; Plasma): 0.5 h

Compound: O=C(N[C@H]1C[C@H](CCN2CCN(c3cccc(Cl)c3Cl)CC2)C1)c1ncco1 [Example 12A, N-(Trans-3-(2-(4-(2,3-dichlorophenyl)piperazin-1-yl)ethyl)cyclobutyl)oxazole-2-carboxamide]
- Peak time tmax ([1]; Brain): 1 h
- Peak time tmax ([1]; Plasma): 0.5 h

Compound: O=C(N[C@H]1C[C@H](CCN2CCN(c3cccc(Cl)c3Cl)CC2)C1)c1ncco1 [crystal form B of p-toluenesulfonate, N-(trans-3-(2-(4-(2,3-dichlorophenyl)piperazin-1-yl)ethyl)cyclobutyl)oxazole-2-carboxamide]
- Maximum single impurity increase % ([2]; High humidity, 5 Days): <0.02%
- Total impurity increase % ([2]; High humidity, 5 Days): <0.02%
- Total impurity increase % ([2]; High temperature, 10 Days): <0.02%
- Maximum single impurity increase % ([2]; Light, 5 Days): 0.13%
- Total impurity increase % ([2]; Light, 5 Days): 0.03%
- Maximum single impurity increase % ([2]; Light, 10 Days): 0.13%
- Total impurity increase % ([2]; Light, 10 Days): 0.19%
- single impurity ([2]; light conditions): increases significantly
- crystal form stability ([2]; other conditions than light): stable

Compound: O=C(N[C@H]1C[C@H](CCN2CCN(c3cccc(Cl)c3Cl)CC2)C1)c1ncco1 [p-toluenesulfonate, N-(trans-3-(2-(4-(2,3-dichlorophenyl)piperazin-1-yl)ethyl)cyclobutyl)oxazole-2-carboxamide]
- RRT 0.190 Area % ([3]; 0 d): 0.317%
- RRT 0.210 Area % ([3]; 0 d): 0.073%
- RRT 1.000 Area % ([3]; 0 d): 99.217%
- RRT 1.050 Area % ([3]; 0 d): 0.149%
- RRT 1.190 Area % ([3]; 0 d): 0.178%
- RRT 1.540 Area % ([3]; 0 d): 0.067%
- total Area % (related substances) ([3]; 0 d): 0.783%
- RRT 0.190 Area % ([3]; GS-5 d (high humidity)): 0.213%
- RRT 0.210 Area % ([3]; GS-5 d (high humidity)): 0.074%
- RRT 1.000 Area % ([3]; GS-5 d (high humidity)): 99.310%
- RRT 1.050 Area % ([3]; GS-5 d (high humidity)): 0.145%
- RRT 1.190 Area % ([3]; GS-5 d (high humidity)): 0.177%
- RRT 1.540 Area % ([3]; GS-5 d (high humidity)): 0.080%
- total Area % (related substances) ([3]; GS-5 d (high humidity)): 0.690%
- RRT 0.190 Area % ([3]; GS-10 d (high humidity)): 0.233%
- RRT 0.210 Area % ([3]; GS-10 d (high humidity)): 0.075%
- RRT 1.000 Area % ([3]; GS-10 d (high humidity)): 99.298%
- RRT 1.050 Area % ([3]; GS-10 d (high humidity)): 0.143%
- RRT 1.190 Area % ([3]; GS-10 d (high humidity)): 0.180%
- RRT 1.540 Area % ([3]; GS-10 d (high humidity)): 0.071%
- total Area % (related substances) ([3]; GS-10 d (high humidity)): 0.702%
- RRT 0.190 Area % ([3]; GW-5 d (high temperature)): 0.163%
- RRT 0.210 Area % ([3]; GW-5 d (high temperature)): 0.072%
- RRT 1.000 Area % ([3]; GW-5 d (high temperature)): 99.400%
- RRT 1.050 Area % ([3]; GW-5 d (high temperature)): 0.121%
- RRT 1.190 Area % ([3]; GW-5 d (high temperature)): 0.175%
- RRT 1.540 Area % ([3]; GW-5 d (high temperature)): 0.068%
- total Area % (related substances) ([3]; GW-5 d (high temperature)): 0.600%
- RRT 0.190 Area % ([3]; GW-10 d (high temperature)): 0.224%
- RRT 0.210 Area % ([3]; GW-10 d (high temperature)): 0.075%
- RRT 1.000 Area % ([3]; GW-10 d (high temperature)): 99.319%
- RRT 1.050 Area % ([3]; GW-10 d (high temperature)): 0.131%
- RRT 1.190 Area % ([3]; GW-10 d (high temperature)): 0.178%
- RRT 1.540 Area % ([3]; GW-10 d (high temperature)): 0.073%
- total Area % (related substances) ([3]; GW-10 d (high temperature)): 0.681%
- RRT 0.190 Area % [3, 4]: 0.348%
- RRT 0.210 Area % [3, 4]: 0.072%
- RRT 1.000 Area % [3, 4]: 99.204%
- RRT 1.050 Area % [3, 4]: 0.137%
- RRT 1.190 Area % [3, 4]: 0.170%
- RRT 1.540 Area % [3, 4]: 0.070%
- total Area % (related substances) [3, 4]: 0.796%
- RRT 0.190 Area % [3, 5]: 0.319%
- RRT 0.210 Area % [3, 5]: 0.074%
- RRT 1.000 Area % [3, 5]: 99.246%
- RRT 1.050 Area % [3, 5]: 0.128%
- RRT 1.190 Area % [3, 5]: 0.168%
- RRT 1.540 Area % [3, 5]: 0.065%
- total Area % (related substances) [3, 5]: 0.754%
- RRT 0.190 Area % ([3]; GZ-5 d (light)): 0.266%
- RRT 0.210 Area % ([3]; GZ-5 d (light)): 0.072%
- RRT 0.890 Area % ([3]; GZ-5 d (light)): 0.130%
- RRT 1.000 Area % ([3]; GZ-5 d (light)): 99.184%
- RRT 1.050 Area % ([3]; GZ-5 d (light)): 0.101%
- RRT 1.190 Area % ([3]; GZ-5 d (light)): 0.171%
- RRT 1.540 Area % ([3]; GZ-5 d (light)): 0.075%
- total Area % (related substances) ([3]; GZ-5 d (light)): 0.816%
- RRT 0.190 Area % ([3]; GZ-10 d (light)): 0.324%
- RRT 0.210 Area % ([3]; GZ-10 d (light)): 0.073%
- RRT 0.890 Area % ([3]; GZ-10 d (light)): 0.232%
- RRT 1.000 Area % ([3]; GZ-10 d (light)): 99.028%
- RRT 1.050 Area % ([3]; GZ-10 d (light)): 0.115%
- RRT 1.190 Area % ([3]; GZ-10 d (light)): 0.162%
- RRT 1.540 Area % ([3]; GZ-10 d (light)): 0.066%
- total Area % (related substances) ([3]; GZ-10 d (light)): 0.972%
- changes in impurities ([3]; high temperature, high humidity, and high temperature and high humidity, 5 and 10 days): no significant changes in impurities
